The nature of series [1]: Solubility of each carboxylic acid in methanol. The following applies: for solubility in methanol (Max): temperature not given.
Series [2] is described as follows: Solubilities of each carboxylic acid in water.
For series [3] the following is noted: 20° C.
Series [4] in a line: Viscosity of binder chemicals. The following applies: 20° C. Format: physicochemical.
A short description of series [5]: Thermal decomposition (temperature vs weight, FIG. 3). The format is physicochemical. How it is done:
FIG. 3 illustrates a graph indicating a relationship between temperature and weigh of glycerin and diglycerin.
In addition, it is preferable that the aforementioned chemicals having only a function as a binder is thermally decomposed in carbon dioxide and water when the molded body of the graphite particles is calcinated at 250-350° C. temperature, then such carbon dioxide and water evaporates into the air, in other word, no residue remains due to the thermal decomposition reaction. In such point of view, it is considered that glycerin and diglycerin as glycerin derivative being thermally decomposed at below 350° C. and having a predetermined viscosity are preferable chemicals. Viscosity of the glycerin is 1500 mPa.s at 20° C., and the thermal decomposition starts at 150° C. and finishes at 250° C. Viscosity of the diglycerin is 120 mPa.s at 20° C., and the thermal decomposition starts at 250° C. and finishes at 320° C. In response to an appropriate thickness of the coating film, glycerin or diglycerin can be diluted with methanol and mixed into the solution of carboxylic acid copper. FIG. 3 indicates relationships between temperature and weight of glycerin and diglycerin. Structure 1 indicates a molecular structure of glycerin, and structure 2 indicates a molecular structure of diglycerin. [drawing 1]

Series [6] can be described thus: Solubility of carboxylic acid copper in organic solvents. The format is physicochemical.
Series [7] is described as follows: Solubility of each carboxylic acid in 1-butanol. Format: physicochemical. The following applies: 20° C.
The nature of series [8]: Solubility of each carboxylic acid in 1-propanol. Format: physicochemical. The following applies: 20° C.

Where two headings read alike, the source gives them in different places.

In series [1] (20° C.), `Cc1ccccc1C(=O)O` [0-toluic acid] registered a solubility in methanol of 20 wt % dissolved at 20 °C.
Take `CC(=O)CC(=O)O` [acetoacetic acid]: the solubility in water in series [2] (20° C.) stood at 20 wt % dissolved at 20 °C. Also, the solubility in methanol in series [1] (20° C.) is 20 wt % dissolved at 20 °C.
In series [2] (20° C.), `C=CCC(C(=O)O)C(=O)O` [allylic malonic acid] had a solubility in water of 20 wt % dissolved at 20 °C. In addition, the solubility in methanol in series [1] (20° C.) was 20 wt % dissolved at 20 °C.
On to `COc1ccc(C(=O)O)cc1` [anisic acid], for which the solubility in methanol in series [1] (20° C.) is 20 wt % dissolved at 20 °C.
Turning to `O=C(O)CCCCCCCC(=O)O` [azelaic acid], in series [1] (20° C.), the solubility in methanol is 20 wt % dissolved at 20 °C.
On to `[Cl][Cu][Cl]` [copper chloride, cupric chloride], for which the “Solubility of copper chloride” value in series [3] (solvent 1-butanol) was 15.4 g dissolved in saturated solution 100 g at 20 °C; in series [3] (solvent 1-propanol), 19.7 g dissolved in saturated solution 100 g at 20 °C; in series [3] (solvent methanol), 37 g dissolved in saturated solution 100 g at 20 °C; in series [3] (solvent water), 42.3 g dissolved in saturated solution 100 g at 20 °C.
The compound `OCC(O)COCC(O)CO` (stereo not drawn) [diglycerin] displayed a Viscosity in series [4] of 120 mPa.s. In addition, the “thermal decomposition finishes at (perfectly decomposed into CO2 and H2O)” value in series [5] turned out to be 320 °C.
For `O=C(O)C(O)c1ccccc1` (stereo not drawn) [dl mandelic acid], the solubility in water in series [2] (30° C.) is reported as 37.5 g is dissolved in water 100 g.
Consider `CCCCCCCCCCCC(=O)O.[Cu]` [dodecanoic acid copper], for which the “solubility in the methanol compared with butanoic acid copper” value in series [6] is recorded as “lower”.
`CCCCCCCCCCCC(=O)O` [dodecanoic acid]: the “solubility in 1-butanol” value in series [7] was 83 g is dissolved in solvent 100 g. Moreover, in series [1] (20° C.), the solubility in methanol was 120 g is dissolved in g is dissolved in methanol 100 g.
For `O=C(O)CCCC(=O)O` [glutaric acid], the solubility in water in series [2] (30° C.) is 63 g is dissolved in saturated g is dissolved in saturated solution 100 g. The same compound yielded a solubility in methanol in series [1] (20° C.) of 20 wt % dissolved at 20 °C.
Turning to `OCC(O)CO` [glycerin], the Viscosity in series [4] is on record as 1500 mPa.s; in series [4] (undiluted) it was 1500 centipoises. Besides, in series [5], the “thermal decomposition finishes at (perfectly decomposed into CO2 and H2O)” value was found to be 250 °C.
Consider `O=C(O)c1cccc(C(=O)O)c1` [isophthalic acid], for which, in series [1], the “solubility in methanol (Max)” value is “Max 1.7 g is dissolved in g is dissolved in methanol 100 g”.
`CC(=O)CCC(=O)O` [levulinic acid]: in series [2] (20° C.), the solubility in water amounted to 20 wt % dissolved at 20 °C. The solubility in methanol in series [1] (20° C.) is 20 wt % dissolved at 20 °C.
For `O=C(O)/C=C\C(=O)O` [maleic acid], in series [2] (30° C.), the solubility in water is recorded as 88 g is dissolved in water 100 g at. Moreover, the solubility in methanol in series [1] (30° C.) is 70 g is dissolved in g is dissolved in methanol 100 g.
Take `O=C(O)CC(=O)O` [malonic acid]: in series [2] (30° C.), the solubility in water is reported as 63 g is dissolved in saturated g is dissolved in saturated solution 100 g.
In turn, `O=C(O)c1ccc(C(=O)O)c(C(=O)O)c1C(=O)O` [mellophanic acid] gave a solubility in water in series [2] (20° C.) of 20 wt % dissolved at 20 °C.
Consider `C=C(C)C(=O)O` [methacrylic acid], for which, in series [2], the “solubility in water” value is on record as “Dissolved at arbitrary ratio”.
For `CCCCCCCCCCCCCC(=O)O` [myristic acid], the “solubility in 1-butanol” value in series [7] is given as 28.7 g is dissolved in solvent 100 g.
`O=C(O)c1ccccc1C(=O)O` [phthalic acid]: the “solubility in 1-propanol” value in series [8] is 4.3 g is dissolved in saturated g is dissolved in saturated solution 100 cc. The “solubility in methanol (Max)” value in series [1] is reported as “Max 16.4 g is dissolved in g is dissolved in methanol 100 g”.
As for `O=C(O)CCCCCC(=O)O` [pimelic acid], the solubility in methanol in series [1] (20° C.) is 20 wt % dissolved at 20 °C.
For `O=C(O)c1ccccc1O` [salicylic acid], the “solubility in 1-propanol” value in series [8] is recorded as 22.3 g is dissolved in saturated g is dissolved in saturated solution 100 cc.
`O=C(O)CCCCCCC(=O)O` [suberic acid]: the solubility in methanol in series [1] (20° C.) amounted to 20 wt % dissolved at 20 °C.
`O=C(O)c1ccc(C(=O)O)cc1` [terephthalic acid]: in series [8], the “solubility in 1-propanol” value was 4.4 g is dissolved in saturated g is dissolved in saturated solution 100 cc. In series [1], the “solubility in methanol (Max)” value is recorded as “Max 16.9 g is dissolved in g is dissolved in methanol 100 g”.
Regarding `O=C(O)c1cc(C(=O)O)cc(C(=O)O)c1` [trimesic acid], the solubility in methanol in series [1] (20° C.) was 20 wt % dissolved at 20 °C.

Source of the values: patent publication US20040255720A1, “Metal graphite material and production method thereof” (AISIN SEIKI KABUSHIKI KAISHA, priority 2003, published 2004).
